Reference: the Deep4Chem optical property database
Several values for one entry are separate records, joined by “and”; a condition that tells them apart may be missing. Equal values may be shown once.

Assay: solvent given as SMILES

Work on CC1=[N+]2C(=C(c3ccc(N(C)C)cc3)c3ccc(C)n3[B-]2(F)F)C=C1 yielded an absorption maximum (in C1CCCCC1) of 508 nm, an absorption maximum (in C1CCOC1) of 506 nm and an absorption maximum (in CC#N) of 503 nm. For the same compound, the absorption maximum (in CC(=O)C(C)(C)C) was 505 nm, the absorption maximum (in CC(C)=O) was 504 nm and the absorption maximum (in CCCCCC) was 507 nm. For the same compound, the absorption maximum (in CCOC(C)=O) was 505 nm and 504 nm, the absorption maximum (in CO) was 504 nm and 503 nm and the absorption maximum (in Cc1ccccc1) was 509 nm. The absorption maximum (in ClC(Cl)Cl) was 509 nm.
Work on CCOC(=O)c1cc(C(=O)OCC)c2c(C)ccc(OC(=O)OC(C)(C)C)c2n1 yielded an absorption maximum (in CCO) of 312 nm.
With CN(C)c1ccc(/C=C/C=N/N=C/c2ccc3ccc4cccc5ccc2c3c45)cc1 the absorption maximum (in CC#N) was 426 nm, the absorption maximum (in CC(C)(C)O) was 420 nm and the absorption maximum (in CC(C)=O) was 418 nm. The absorption maximum (in CC(C)O) was 432 nm, the absorption maximum (in CCCCO) was 433 nm and the absorption maximum (in CO) was 434 nm. The absorption maximum (in CS(C)=O) was 438 nm, the absorption maximum (in ClC(Cl)Cl) was 433 nm and the absorption maximum (in ClCCl) was 430 nm. For the same compound, the absorption maximum (in O) was 420 nm.
CC(C)[Si](C#Cc1c2ccccc2c(C#C[Si](C(C)C)(C(C)C)C(C)C)c2nc3c(ccc4cc5ccccc5cc43)nc12)(C(C)C)C(C)C gave an absorption maximum (in CCCCCC) of 536 nm.
Work on CCOC(=O)c1c(-c2cc3c(ccc4ccccc43)oc2=O)nn(-c2cccc(C)c2)c1C(=O)OCC yielded an absorption maximum (in ClCCl) of 361 nm.
With c1ccc([B-]23Oc4ccccc4-c4c5[n+]6c(c([n+]42)-c2ccccc2O3)-c2ccccc2O[B-]6(c2ccccc2)Oc2ccccc2-5)cc1 the absorption maximum (in ClCCl) was 574 nm.
In the case of F[B-]1(F)n2c(c3cccc4cccc2c43)=Nc2cccc(Cl)[n+]21, the absorption maximum (in C1CCOC1) is reported as 476 nm, the absorption maximum (in CC#N) is reported as 470 nm and the absorption maximum (in CCCCCC) is reported as 481 nm. For the same compound, the absorption maximum (in Cc1ccccc1) was 481 nm and the absorption maximum (in ClCCl) was 447 nm.
In the case of Cc1cc(C)c([B-]2(c3c(C)cc(C)cc3C)[O+]=P(c3ccccc3)(c3ccccc3)c3cc(C#Cc4ccccc4)sc3-c3sc(C#Cc4ccccc4)cc32)c(C)c1, the absorption maximum (in C1CCOC1) is reported as 417 nm.
For CN(C)c1cc2sc3cc(N(C)C)c(F)cc3c(=O)c2cc1F, the absorption maximum (in CCO) was 382 nm.
Compound F[B-]1(F)n2c(-c3ccccc3)cc(-c3ccccn3)c2N=C2C(c3ccccn3)=CC(c3ccccc3)=[N+]21 has an absorption maximum (in CC#N) of 655 nm.
Cc1ccc([N+]2=c3c4n(c5ccccc35)[B-](F)(F)[N+](c3ccc(C)cc3)=c3c=4n(c4ccccc34)[B-]2(F)F)cc1 showed an absorption maximum (in ClCCl) of 743 nm.
O=Cc1cc2c(cc3ccc4cccc5ccc2c3c45)[nH]1 gave an absorption maximum (in CCOC(C)=O) of 416 nm.
In the case of CCN(CC)c1ccc2cc(C#N)c(=O)oc2c1, the absorption maximum (in ClCCl) is reported as 428 nm.
In the case of CCCCC[n+]1ccc(/C=C/c2ccc(N(C)C)c3ccccc23)c2ccccc21, the absorption maximum (in C1CCOC1) is reported as 502 nm, the absorption maximum (in C1COCCO1) is reported as 495 nm and the absorption maximum (in CC#N) is reported as 496 nm. For the same compound, the absorption maximum (in CC(C)=O) was 503 nm, the absorption maximum (in CCCCO) was 522 nm and the absorption maximum (in CCO) was 508 nm. It also gave an absorption maximum (in CN(C)C=O) of 501 nm, an absorption maximum (in CO) of 503 nm and an absorption maximum (in CS(C)=O) of 506 nm. It also gave an absorption maximum (in ClC(Cl)Cl) of 522 nm, an absorption maximum (in O) of 452 nm and an absorption maximum (in c1ccccc1) of 494 nm. The absorption maximum (in c1ccncc1) was 526 nm.
With Cc1cccn2c1cc1c3ccccc3nc(-c3ccco3)c12 the absorption maximum (in CS(C)=O) was 400 nm.
With Cc1ccc(-c2nc(-c3cccc(O)c3)[nH]c2-c2ccc(C)cc2)cc1 the absorption maximum (in CO) was 300 nm.
With CCCCCCCCCCCCOc1ccc(C#CC(C#Cc2ccc(OCCCCCCCCCCCC)cc2)=Cc2cc(C=C(C#Cc3ccc(OCCCCCCCCCCCC)cc3)C#Cc3ccc(OCCCCCCCCCCCC)cc3)cc(C=C(C#Cc3ccc(OCCCCCCCCCCCC)cc3)C#Cc3ccc(OCCCCCCCCCCCC)cc3)c2)cc1 the absorption maximum (in CCOC(C)=O) was 347 nm.
Compound C[Si]1(C)c2cc(C#Cc3ccccc3)ccc2C=Cc2ccc(C#Cc3ccccc3)cc21 has an absorption maximum (in ClCCl) of 403 nm.
For O=c1c2cccc3cccc(c32)c2nc3cccc4cccc(c43)n12, the absorption maximum (in ClCCl) was 475 nm.
CC(=O)Nc1ccc(C2=C/C(=C\c3ccc(C#N)cc3)C(=O)N2CC(C)C)cc1 showed an absorption maximum (in C1COCCO1) of 450 nm.
With CCC1=C(C)C2=Cc3c4ccccc4c4n3[B-](C)(Oc3ccccc3-4)[N+]2=C1C (configuration not stated) the absorption maximum (in CC#N) was 616 nm, the absorption maximum (in CCCCCC) was 621 nm and the absorption maximum (in Cc1ccccc1) was 625 nm. The absorption maximum (in ClCCl) was 622 nm.
In the case of COc1ccc(-c2ccc(C(=O)NC(C)(C)C)c3c2ccc2c4ccccc4c4ccccc4c23)cc1, the absorption maximum (in ClCCl) is reported as 339 nm.
Work on CC(C)(C)c1ccc(C2=C(c3ccc(C(C)(C)C)cc3)[Si](c3ccccc3)(c3ccccc3)c3ccccc32)cc1 yielded an absorption maximum (in C1CCOC1) of 341 nm.
With c1ccc(N2c3ccc4ccccc4c3-c3c4ccccc4cc[n+]3[B-]2(c2ccccc2)c2ccccc2)cc1 the absorption maximum (in Cc1ccccc1) was 511 nm.
With CCN1c2ccc(/C=N/Nc3ccccn3)cc2Sc2cc(-c3ccccc3)ccc21 the absorption maximum (in C1CCOC1) was 379 nm, the absorption maximum (in CS(C)=O) was 387 nm and the absorption maximum (in Cc1ccccc1) was 382 nm. The absorption maximum (in ClCCl) was 384 nm.
Cc1ccc2nc3c(=O)[nH]c(=O)[nH]c3nc2c1 showed an absorption maximum (in CC#N) of 370 nm and an absorption maximum (in ClCCCl) of 368 nm.
